# Where two headings read alike, the source gives them in different places.
# Columns and labels:
# [1] = solubility; assay type: physicochemical
# Experimental: Aspect: solide P.F. : 83-85° C Solubilité : se dissout dans les solvants organiques usuels, tels que les alcools inférieurs par exemple méthanol, éthanol, les esters inférieurs, par exemple l'acétate d'éthyle ou encore dans l'éther éthylique et le chloroforme. Dans l'eau, la solubilité est de 44 % environ. αj25 : +45° (c = 0,03 n, méthanol)
# Aspect : mousse blanche solide. P.F. 120-123° C Solubilité : se dissout dans les solvants organiques usuels, tels que les alcools inférieurs par exemple méthanol, éthanol, les esters inférieurs par exemple l'acétate d'éthyle ou encore dans l'éther éthylique et le chloroforme. Par contre, il est insoluble dans l'eau.
# [2] = system: flore ruménale; assay: in vitro rumen flora fermentation, nitrogen use; conditions: in the absence of protein nitrogen
# [3] = system: Eimeria tenella; assay: anticoccidial test in cockerels inoculated with Eimeria tenella; assay type: in vivo; conditions: for Lésion individuelle Moyenne: Reid lesion score; for IC de J - 2 à J + 8: feed conversion index; for EO x 10^3 Total: oocyst excretion J+4 to J+8; for EO %: oocyst excretion relative to CTNT; for P = poids moyen à J + 8: start weight 127 g
# Source text: Des tests ont été effectués de manière à montrer l'efficacité de l'abiérixine comme agent anticoccidien dans lesquels on a relevé les résultats zootechniques (poids, indice de consommation) et les symptômes […] de coccidiose (morbidité, mortalité, aspect des matières fécales, excrétion ookystale, lésions).
# On a utilisé à cet effet le protocole expérimental suivant : • Animaux • - Coquelets de souche génétique Warren Sex Sal Link • - Age le jour de l'inoculation (J O) : 17 jours • - Age le jour de l'abattage (J +8) : 25 jours
# Inoculum Dose : 300 000 oocystes sporulés d'Eimeria tenella
# Alimentation • - Aliment utilisé : aliment type poulet de chair, 1er âge • - Anticoccidien utilisé : l'abiérixine à la dose de 40 ou 50 ppm/jour depuis J-2 jusqu'à J +8
# Lots • - Nombre d'animaux par lot : 4 • - Répartition des lots : • NCNT : animaux non contaminés, non traités • CTNT : animaux contaminés, non traités • CTT, : animaux contaminés, traités avec 40 ppm d'abiérixine • CTT2 : animaux contaminés, traités avec 50 ppm d'abiérixine
# Les critères • - Les gains de poids (GP) de J-2 à J +8 • - L'excrétion ookystale (EO) journalière de J+4 à J+8 • - La morbidité (M) notée de 0 à 4 • - L'aspect des fécès noté de 0 : fécès normales à 4 : fécès diarrhéiques ou hémorragiques (MF) • - La mortalité (M %) exprimée en pourcentage • - Les lésions (L) notées selon la notation de RFID (W. Malcolm REID, "A diagnostic chart of nine species of fowl coccidia - Georgia Agricultural Experiment Stations - Dec. 1964, Technical Bulletin N. S. 39) • - Les indices de consommation (IC)
# [4] = system: Bacillus cereus; assay: minimum inhibitory concentration, dilution method; assay type: cell-based
# Source text: Par exemple, on a décrit dans les brevets de l'Allemagne de l'Est Nos. 208 172 et 237 725 des complexes d'antibiotiques produits à partir de souches de Streptomyces hygroscopicus. Ces composés polyéthers sont caractérisés par une activité antibiotique importante et comparativement plus importante que celle présentée par la monensine ou la salinomycine. Par contre, l'abiérixine est douée d'activité antibiotique très faible par rapport à celle présentée par la plupart des ionophores polyéthers connus comme la monensine, la nigéricine ou la grisorixine. Par exemple, la concentration minimale inhibitrice de l'abiérixine vis-à-vis de Bacillus cereus déterminée selon la méthode de dilution est de 25 µg/ml mais de 0,05 µg/ml, 0,05 ug/ml et 3,12 gg/ml dans le cas respectivement de la monensine, de la nigéricine et de la grisorixine.
# [5] = acute toxicity, oral; conditions: mouse, in vivo, souris, voie orale, read-out: toxicité aiguë DL50
# Experimental: On a trouvé, par exemple, que la toxicité aiguë DL50 de l'abiérixine chez la souris par voie orale est comprise entre 600 et 1000 mg/kg alors que, dans les mêmes conditions, la toxicité d'autres polyéthers polycycliques se révèle beaucoup plus importante, de l'ordre de 50 mg/kg (DL50 lonomycine : 50 mg/kg, complexe de monensine- : 43,8 mg/kg, salinomycine- : 50 mg/kg).
# [6] = mouse, in vivo; cited from earlier work
# [7] = cited from earlier work
# [8] = system: Streptomyces hygroscopicus NRRL 3602; assay: sensitivity of producer strain to nigericin (MIC); assay type: cell-based
# [9] = system: Streptomyces C.N.C.M.-I-321; assay: sensitivity of producer strain to nigericin (MIC); assay type: cell-based
# [10] = system: Streptomyces hygroscopicus NRRL B 1865; assay: sensitivity of producer strain to nigericin (MIC); assay type: cell-based
# [11] = CTT1: 40 ppm, J + 6, score 0 to 4
# [12] = CTT1: 40 ppm, J + 7, score 0 to 4
# [13] = CTT2: 50 ppm, J + 6, score 0 to 4
# [14] = CTT2: 50 ppm, J + 7, score 0 to 4
# [15] = souris, voie orale, comparison polyethers
compound,measurement,setting,value
COC1CC(CC(O)CCC(C)C=C(C)C(=O)O)OC2(OC(C)(C3CCC(C)(C4OC(C5OC(O)(CO)C(C)CC5C)CC4C)O3)CC2C)C1C (stereo not shown) [sel de sodium de l'abiérixine],Solubilité dans l'eau,"[1]; water, in words",insoluble
COC1CC(CC(O)CCC(C)C=C(C)C(=O)O)OC2(OC(C)(C3CCC(C)(C4OC(C5OC(O)(CO)C(C)CC5C)CC4C)O3)CC2C)C1C (stereo not shown) [abiérixine],diminution de l'efficacité de la synthèse microbienne,[2],10%
same,croissance pondérale,"[3]; 40 ppm/jour for 10 days, cockerels infected with E. tenella",augmente la croissance pondérale
same,M % (mortalité),[3]; CTT1: 40 ppm,0%
same,GP = gain de poids moyen de J - 2 à J + 8,[3]; CTT1: 40 ppm in feed J-2 to J+8,93 g
same,MF (aspect des fécès),"[3]; CTT1: 40 ppm, J + 5, score 0 normal to 4 diarrhoeic or haemorrhagic",4
same,M (morbidité),"[3]; CTT1: 40 ppm, J + 5, score 0 to 4",3
same,M (morbidité),[3]; [11],0
same,MF (aspect des fécès),[3]; [11],1
same,M (morbidité),[3]; [12],0
same,MF (aspect des fécès),[3]; [12],0
same,Lésion individuelle Moyenne,[3]; CTT1: 40 ppm,"2,5"
same,IC de J - 2 à J + 8,[3]; CTT1: 40 ppm,"2,8"
same,EO x 10^3 Total,[3]; CTT1: 40 ppm,4165 x 10^3
same,EO %,[3]; CTT1: 40 ppm,"74,0%"
same,P = poids moyen à J + 8,"[3]; CTT1: infected cockerels, 40 ppm in feed J-2 to J+8",219 g
same,M % (mortalité),[3]; CTT2: 50 ppm,0%
same,GP = gain de poids moyen de J - 2 à J + 8,[3]; CTT2: 50 ppm in feed J-2 to J+8,63 g
same,MF (aspect des fécès),"[3]; CTT2: 50 ppm, J + 5, score 0 normal to 4 diarrhoeic or haemorrhagic",3
same,M (morbidité),"[3]; CTT2: 50 ppm, J + 5, score 0 to 4",3
same,M (morbidité),[3]; [13],0
same,MF (aspect des fécès),[3]; [13],1
same,M (morbidité),[3]; [14],0
same,MF (aspect des fécès),[3]; [14],0
same,Lésion individuelle Moyenne,[3]; CTT2: 50 ppm,"3,5"
same,IC de J - 2 à J + 8,[3]; CTT2: 50 ppm,"3,35"
same,EO x 10^3 Total,[3]; CTT2: 50 ppm,2324 x 10^3
same,EO %,[3]; CTT2: 50 ppm,"41,3%"
same,P = poids moyen à J + 8,"[3]; CTT2: infected cockerels, 50 ppm in feed J-2 to J+8",190 g
same,MIC,[4]; read-out: concentration minimale inhibitrice,25 µg/mL
same,LD50,[5],600 to 1000 mg/kg
CC[C@@H](C(=O)[C@@H](C)[C@@H](O)[C@H](C)[C@@H]1O[C@@H]([C@@H](CC)C(=O)O)CC[C@@H]1C)[C@H]1O[C@]2(C=C[C@@H](O)[C@]3(CC[C@@](C)([C@H]4CC[C@](O)(CC)[C@H](C)O4)O3)O2)[C@H](C)C[C@@H]1C [salinomycine],DL50,[6],18 mg/kg
same,DL50,"[7]; mouse, in vivo, po",50 mg/kg
CO[C@@H]1C[C@@H](C[C@H]2CC[C@H](C)C(C(C)C(=O)O)O2)O[C@]2(OC(C)(C3CCC(C)(C4O[C@@H]([C@H]5O[C@](C)(O)[C@H](C)C[C@@H]5C)C[C@@H]4C)O3)CC2C)[C@@H]1C (stereo partly shown) [grisorixine],concentration minimale inhibitrice,[4],"3,12 gg/ml"
complexe de monensine,DL50,[7]; [15],"43,8 mg/kg"
nigéricine,diminution de l'efficacité de la synthèse microbienne,[2],> 30%
same,Sensibilité à la nigéricine (C.M.I),[8],> 500 µg/mL
same,Sensibilité à la nigéricine (C.M.I),[9],> 500 µg/mL
same,concentration minimale inhibitrice,[4],"0,05 ug/ml"
same,Sensibilité à la nigéricine (C.M.I),[10],> 500 µg/mL
COC1CC(CC(O)CCC(C)C=C(C)C(=O)O)OC2(OC(C)(C3CCC(C)(C4OC(C5OC(O)(CO)C(C)CC5C)CC4C)O3)CC2C)C1C (stereo not shown) [abiérixine monohydratée],Solubilité dans les solvants organiques usuels,"[1]; méthanol, éthanol, acétate d'éthyle, éther éthylique, chloroforme",se dissout
same,solubility,"[1]; water, read-out: Solubilité dans l'eau",~440 mg/mL
lonomycine,DL50,[7]; [15],50 mg/kg
